Here are results for 13 molecules from patent US9428503B2, “Imidazo[4,5-c]quinolin-2-one compounds and their use in treating Cancer” (AstraZeneca AB, priority 2014, dated 2016).

Type in all cases: cell-based
The target in one assay is ATR kinase (Homo sapiens (Human), UniProt Q13535). The experiment in a line: Assay b) ATR cellular potency assay (pChk1 Ser345 in HT29 cells treated with 4NQO). The following applies: HT29 cells, pChk1 Ser345 after 4NQO; geometric mean where repeated; read-out: Assay b) ATR Cell IC50.
For the next assay, the target named is PI3K-α (Homo sapiens, UniProt P42336). The experiment in a line: Assay c) PI3K cellular potency assay (phospho-Akt T308 ELISA in BT474 cells). The following applies: BT474 cells, phospho-Akt T308, 2 h; geometric mean where repeated; read-out: Assay c) PI3Kα Cell IC50.
PI3K-α, sequence (P42336 whole entry, looked up): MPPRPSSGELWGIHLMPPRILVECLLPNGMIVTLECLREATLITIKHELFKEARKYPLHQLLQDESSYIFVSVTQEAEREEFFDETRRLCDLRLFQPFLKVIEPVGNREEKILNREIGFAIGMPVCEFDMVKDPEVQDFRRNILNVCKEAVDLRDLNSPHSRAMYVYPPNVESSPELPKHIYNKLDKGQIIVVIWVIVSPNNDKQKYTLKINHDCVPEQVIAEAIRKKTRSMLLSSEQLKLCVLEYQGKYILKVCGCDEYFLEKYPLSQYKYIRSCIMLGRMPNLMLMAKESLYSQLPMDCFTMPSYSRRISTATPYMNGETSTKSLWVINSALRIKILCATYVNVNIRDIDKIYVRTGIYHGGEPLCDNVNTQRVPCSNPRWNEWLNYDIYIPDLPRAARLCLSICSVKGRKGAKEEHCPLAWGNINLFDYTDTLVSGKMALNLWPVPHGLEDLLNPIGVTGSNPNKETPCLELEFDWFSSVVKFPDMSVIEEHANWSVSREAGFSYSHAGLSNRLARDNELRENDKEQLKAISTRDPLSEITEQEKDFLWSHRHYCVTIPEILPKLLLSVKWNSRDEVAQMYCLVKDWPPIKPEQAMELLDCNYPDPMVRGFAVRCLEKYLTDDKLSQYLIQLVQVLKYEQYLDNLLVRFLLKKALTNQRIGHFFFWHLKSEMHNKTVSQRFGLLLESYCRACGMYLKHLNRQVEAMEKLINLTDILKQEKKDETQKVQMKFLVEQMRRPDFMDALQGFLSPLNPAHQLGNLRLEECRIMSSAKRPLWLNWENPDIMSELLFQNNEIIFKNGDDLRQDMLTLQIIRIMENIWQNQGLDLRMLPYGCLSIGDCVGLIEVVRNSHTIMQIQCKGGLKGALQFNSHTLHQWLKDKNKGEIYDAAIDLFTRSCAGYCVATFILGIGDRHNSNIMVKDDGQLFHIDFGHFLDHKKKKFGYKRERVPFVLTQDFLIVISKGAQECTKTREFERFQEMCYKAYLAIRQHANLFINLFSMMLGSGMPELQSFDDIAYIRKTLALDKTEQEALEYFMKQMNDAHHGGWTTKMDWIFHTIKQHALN
Another assay deals with mTOR (Homo sapiens (Human), UniProt P42345). The experiment in a line: Assay d) mTOR cellular potency assay (phospho-AKT Ser473 in MDA-MB-468 cells). The following applies: MDA-MB-468 cells, phospho-AKT Ser473, 2 h; geometric mean where repeated; read-out: Assay d) mTOR Cell IC50.
A further assay addresses ATM kinase (Homo sapiens (Human), UniProt Q13315). Put plainly: Assay a) ATM cellular potency assay (pATM Ser1981 in X-ray irradiated HT29 cells). The following applies: HT29 cells, pATM Ser1981 after X-ray irradiation; geometric mean where repeated; read-out: Assay a) ATM Cell IC50.

The structures appear in SMILES notation. Structures can show the parent of a compound that is named as a salt. A value given as a limit tells only on which side of the number the result lay.

ATM kinase, sequence (Q13315 whole entry): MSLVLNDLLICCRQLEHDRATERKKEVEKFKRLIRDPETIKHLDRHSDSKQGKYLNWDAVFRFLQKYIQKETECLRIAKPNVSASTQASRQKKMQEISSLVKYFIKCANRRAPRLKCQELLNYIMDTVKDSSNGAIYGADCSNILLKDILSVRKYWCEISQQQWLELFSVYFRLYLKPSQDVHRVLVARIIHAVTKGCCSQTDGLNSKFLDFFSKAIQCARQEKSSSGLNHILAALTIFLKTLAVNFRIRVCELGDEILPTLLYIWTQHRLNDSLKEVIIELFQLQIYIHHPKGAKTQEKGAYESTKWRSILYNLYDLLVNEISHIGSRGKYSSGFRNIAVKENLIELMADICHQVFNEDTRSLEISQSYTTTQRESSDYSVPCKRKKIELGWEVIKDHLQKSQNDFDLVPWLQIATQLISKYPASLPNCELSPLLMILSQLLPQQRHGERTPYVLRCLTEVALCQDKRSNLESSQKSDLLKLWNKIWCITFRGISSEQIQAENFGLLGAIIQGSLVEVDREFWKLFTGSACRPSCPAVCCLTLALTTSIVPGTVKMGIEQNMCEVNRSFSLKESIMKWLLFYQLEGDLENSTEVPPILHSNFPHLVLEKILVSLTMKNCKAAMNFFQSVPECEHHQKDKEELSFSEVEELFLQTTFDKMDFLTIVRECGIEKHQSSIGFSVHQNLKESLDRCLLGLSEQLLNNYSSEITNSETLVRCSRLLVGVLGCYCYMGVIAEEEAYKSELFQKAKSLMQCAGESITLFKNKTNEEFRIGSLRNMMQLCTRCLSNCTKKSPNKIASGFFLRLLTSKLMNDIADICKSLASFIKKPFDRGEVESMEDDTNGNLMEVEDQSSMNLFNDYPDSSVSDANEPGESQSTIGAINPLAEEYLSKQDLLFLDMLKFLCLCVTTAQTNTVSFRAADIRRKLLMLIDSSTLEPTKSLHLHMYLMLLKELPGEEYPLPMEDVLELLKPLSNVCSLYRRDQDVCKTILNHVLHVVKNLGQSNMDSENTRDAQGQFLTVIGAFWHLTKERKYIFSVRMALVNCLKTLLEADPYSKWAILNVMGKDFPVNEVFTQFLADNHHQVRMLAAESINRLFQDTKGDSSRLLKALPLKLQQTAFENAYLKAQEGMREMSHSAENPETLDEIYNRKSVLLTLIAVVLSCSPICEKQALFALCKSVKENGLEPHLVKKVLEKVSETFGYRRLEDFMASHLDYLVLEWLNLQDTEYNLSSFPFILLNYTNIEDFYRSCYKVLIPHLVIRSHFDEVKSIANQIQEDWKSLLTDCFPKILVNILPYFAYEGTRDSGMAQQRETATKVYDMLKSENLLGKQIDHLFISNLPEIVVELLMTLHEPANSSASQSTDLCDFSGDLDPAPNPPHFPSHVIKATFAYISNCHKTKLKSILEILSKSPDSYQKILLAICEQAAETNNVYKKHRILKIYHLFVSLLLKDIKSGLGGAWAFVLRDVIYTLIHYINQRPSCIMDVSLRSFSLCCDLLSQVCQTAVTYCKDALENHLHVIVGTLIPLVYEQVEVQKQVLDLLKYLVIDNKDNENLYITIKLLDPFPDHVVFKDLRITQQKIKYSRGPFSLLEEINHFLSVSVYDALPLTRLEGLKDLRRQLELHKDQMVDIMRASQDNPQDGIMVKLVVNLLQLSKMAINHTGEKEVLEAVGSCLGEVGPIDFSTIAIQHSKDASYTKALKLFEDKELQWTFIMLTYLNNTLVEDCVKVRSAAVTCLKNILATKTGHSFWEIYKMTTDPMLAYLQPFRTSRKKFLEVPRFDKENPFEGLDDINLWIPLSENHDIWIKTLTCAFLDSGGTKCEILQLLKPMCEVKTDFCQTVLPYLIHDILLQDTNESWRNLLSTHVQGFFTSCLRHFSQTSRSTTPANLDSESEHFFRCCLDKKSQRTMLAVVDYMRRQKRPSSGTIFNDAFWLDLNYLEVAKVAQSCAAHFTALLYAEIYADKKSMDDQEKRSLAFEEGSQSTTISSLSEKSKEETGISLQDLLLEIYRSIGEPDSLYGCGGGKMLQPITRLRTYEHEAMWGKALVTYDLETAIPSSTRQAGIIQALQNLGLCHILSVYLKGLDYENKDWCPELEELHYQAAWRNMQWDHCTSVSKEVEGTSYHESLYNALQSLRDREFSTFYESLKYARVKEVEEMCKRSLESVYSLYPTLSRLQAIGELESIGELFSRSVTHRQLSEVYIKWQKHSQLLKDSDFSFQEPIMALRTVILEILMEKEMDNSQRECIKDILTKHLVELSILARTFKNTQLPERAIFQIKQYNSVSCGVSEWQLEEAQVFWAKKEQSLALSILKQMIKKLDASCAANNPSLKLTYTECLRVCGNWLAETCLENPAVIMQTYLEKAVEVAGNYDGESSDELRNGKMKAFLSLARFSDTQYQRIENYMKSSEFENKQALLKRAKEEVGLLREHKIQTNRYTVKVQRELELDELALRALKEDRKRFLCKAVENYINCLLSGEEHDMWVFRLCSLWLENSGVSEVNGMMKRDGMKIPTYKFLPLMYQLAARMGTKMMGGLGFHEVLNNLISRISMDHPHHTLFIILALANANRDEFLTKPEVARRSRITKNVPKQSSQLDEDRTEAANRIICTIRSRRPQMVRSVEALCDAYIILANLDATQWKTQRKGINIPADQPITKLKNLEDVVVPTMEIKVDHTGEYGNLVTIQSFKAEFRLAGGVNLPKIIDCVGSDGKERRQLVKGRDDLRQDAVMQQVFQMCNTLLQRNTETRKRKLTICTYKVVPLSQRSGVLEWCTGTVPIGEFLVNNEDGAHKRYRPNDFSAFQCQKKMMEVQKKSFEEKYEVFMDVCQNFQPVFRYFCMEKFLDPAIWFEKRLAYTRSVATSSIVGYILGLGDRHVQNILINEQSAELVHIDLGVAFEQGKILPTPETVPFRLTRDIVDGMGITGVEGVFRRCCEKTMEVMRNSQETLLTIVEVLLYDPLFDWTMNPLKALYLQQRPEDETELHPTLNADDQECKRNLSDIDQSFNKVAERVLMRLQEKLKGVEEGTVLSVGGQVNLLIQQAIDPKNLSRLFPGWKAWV

`Cn1c(=O)n([C@H]2CCCOC2)c2c3cc(-c4ccc(OCCCN5CCCCC5)nc4)c(F)cc3ncc21` [Example 47, 7-Fluoro-3-methyl-8-[6-[3-(1-piperidyl)propoxy]-3-pyridyl]-1-[(3S)-tetrahydropyran-3-yl]imidazo[4,5-c]quinolin-2-one methanesulfonic acid salt]: the half-inhibitory concentration (IC50) was over 30 µM on ATR kinase, over 23.5 µM at PI3K-α, over 30 µM on mTOR and 0.000799 µM at ATM kinase.
Consider `CO[C@@H]1CC[C@@H](n2c(=O)n(C)c3cnc4ccc(-c5ccc(OCCCN(C)C)nc5F)cc4c32)C1` [Example 68, 8-[6-[3-(Dimethylamino)propoxy]-2-fluoro-3-pyridyl]-1-[(1R,3R)-3-methoxycyclopentyl]-3-methyl-imidazo[4,5-c]quinolin-2-one], for which the IC50 at ATR kinase was over 29 µM; on PI3K-α, 0.644 µM; on mTOR, 3.18 µM; on ATM kinase it was 0.000208 µM.
Take `CO[C@@H]1CC[C@H](n2c(=O)n(C)c3cnc4cc(F)c(-c5ccc(OCCCN(C)C)nc5)cc4c32)C1` [Example 71, 8-[6-[3-(dimethylamino)propoxy]-3-pyridyl]-7-fluoro-1-[(1S,3R)-3-methoxycyclopentyl]-3-methyl-imidazo[4,5-c]quinolin-2-one]: the IC50 at ATR kinase is over 30 µM; at PI3K-α it was over 11.4 µM; at mTOR it was 15.2 µM; at ATM kinase, 0.00145 µM.
On to `CNCCCOc1ccc(-c2ccc3ncc4c(c3c2)n(C2CCOCC2)c(=O)n4C)cn1` [Example 40, 3-Methyl-8-[6-(3-methylaminopropoxy)pyridin-3-yl]-1-(oxan-4-yl)imidazo[5,4-c]quinolin-2-one], for which the IC50 stood at 1.33 µM at ATR kinase, 0.184 µM on PI3K-α, 0.191 µM at mTOR and 0.000567 µM on ATM kinase.
`Cn1c(=O)n([C@@H]2CCCOC2)c2c3cc(-c4ccc(OCCCN5CCCCC5)nc4)ccc3ncc21` [Example 32, 3-methyl-1-[(3R)-oxan-3-yl]-8-[6-(3-piperidin-1-ylpropoxy)pyridin-3-yl]imidazo[5,4-c]quinolin-2-one]: the 50% inhibitory concentration (IC50) on ATR kinase was over 30 µM; at PI3K-α, 2.94 µM; at mTOR, 6.1 µM; on ATM kinase, 0.00178 µM.
As for `Cn1c(=O)n([C@@H]2CCCOC2)c2c3cc(-c4ccc(OCCCN5CCC5)nc4)ccc3ncc21` [Example 34, 8-[6-[3-(azetidin-1-yl)propoxy]pyridin-3-yl]-3-mehtyl-1-[(3R)-oxan-3-yl]imidazo[5,4-c]quinolin-2-one], the IC50 on ATR kinase is over 16.9 µM; on PI3K-α it was 0.402 µM; on mTOR, 0.505 µM; at ATM kinase, 0.00084 µM.
For the molecule `CO[C@H]1C[C@@H](n2c(=O)n(C)c3cnc4ccc(-c5ccc(OCCCN6CCC6)nc5)cc4c32)C1` [Example 38, 8-[6-[3-(azetidin-1-yl)propoxy]pyridin-3-yl]-1-(cis-3-methoxycyclobutyl)-3-methylimidazo[4,5-c]quinolin-2-one], the IC50 at ATR kinase is over 24.4 µM; at PI3K-α, 0.729 µM; at mTOR, 2.24 µM; at ATM kinase it was 0.000292 µM.
Consider `CNCCCOc1ccc(-c2ccc3ncc4c(c3c2)n([C@H]2C[C@@H](OC)C2)c(=O)n4C)cn1` [Example 42, 1-(cis-3-methoxycyclobutyl)-3-methyl-8-[6-(3-methylaminopropoxy)pyridin-3-yl]imidazo[4,5-c]quinolin-2-one], for which the IC50 at ATR kinase amounted to 4.37 µM; on PI3K-α, 0.321 µM; at mTOR, 0.214 µM; on ATM kinase, 0.000249 µM.
As to `CN(C)CCCOc1ccc(-c2cc3c(cc2F)ncc2c3n(C3COC3)c(=O)n2C)cn1` [Example 9, 8-[6-(3-dimethylaminopropoxy)pyridin-3-yl]-7-fluoro-3-methyl-1-(oxetan-3-yl)imidazo[5,4-c]quinolin-2-one], the IC50 at ATR kinase was over 30 µM; on PI3K-α, over 29.1 µM; on mTOR, over 21.3 µM; at ATM kinase it was 0.0038 µM.
In the case of `CO[C@H]1C[C@@H](n2c(=O)n(C)c3cnc4ccc(-c5ccc(OCCCN(C)C)nc5)cc4c32)C1` [Example 2, 8-[6-(3-Dimethylaminopropoxy)pyridin-3-yl]-1-(cis-3-methoxycyclobutyl)-3-methylimidazo[4,5-c]quinolin-2-one], the IC50 was over 29 µM at ATR kinase, 1.77 µM on PI3K-α, 1.17 µM on mTOR and 0.000249 µM at ATM kinase.
Regarding `CNCCCOc1ccc(-c2ccc3ncc4c(c3c2)n([C@H]2CCCOC2)c(=O)n4C)cn1` [Example 41, 3-methyl-8-[6-(3-methylaminopropoxy)pyridin-3-yl]-1-[(3S)-oxan-3-yl]imidazo[5,4-c]quinolin-2-one], the IC50 on ATR kinase came out at 3.94 µM; at PI3K-α, 0.267 µM; at mTOR, 0.395 µM; at ATM kinase, 0.000555 µM.
As to `Cn1c(=O)n(C2CCC2)c2c3cc(-c4ccc(OCCCN5CCCCC5)nc4)ccc3ncc21` [Example 57, 1-cyclobutyl-3-methyl-8-[6-[3-(1-piperidyl)propoxy]-3-pyridyl]imidazo[4,5-c]quinolin-2-one trifluoroacetic acid salt], the IC50 is over 30 µM on ATR kinase, over 14.3 µM at PI3K-α, 5.77 µM at mTOR and 0.000434 µM at ATM kinase.
The corresponding values for `Cn1c(=O)n([C@H]2CCCOC2)c2c3cc(-c4ccc(OCCCN5CCCCC5)nc4)ccc3ncc21` [Example 31, 3-methyl-1-[(3S)-oxan-3-yl]-8-[6-(3-piperidin-1-ylpropoxy)pyridin-3-yl]imidazo[5,4-c]quinolin-2-one] are over 30 µM, over 10.9 µM, 19.5 µM and 0.00109 µM.
